This is an account of results in US20230130066A1, “USE OF CYCLODEXTRINS IN DISEASES AND DISORDERS INVOLVING PHOSPHOLIPID DYSREGULATION” (priority 2017, published 2023).

“And” between values parts separate entries of the source, which are not always exact repeats. Identical values can stand only once. Like-named read-outs stand apart in the source and are kept apart here.

The test system of one data set is NPC cells. The note with it: cited from earlier work.
For data set [1] the following is noted: mice with spinobulbar muscular atrophy (SBMA); cited from earlier work.
The next data set concerns Caco-2 monolayers. Conditions: cited from earlier work; for equally effective concentration on paracellular permeability: after 40 min.
In a further data set the test system is MCF-7 cells. The data set can be described thus: Wound healing / gap closure migration assay, MCF-7. The data set is classed as cell-based, human. The note with it: 2 h treatment; for wound closure, replications r1-r3: listed as HPbCD. Here is the method:
(§1) Cells were cultured in 24-well culture plates (Cytoselect CBA-120, 0.9 mm wound healing/gap closure migration assay) for 24 h with wound healing insert in place.
(§2) Protocol: Warm up the 24-well plate (CBA-120, Cell BioLabs Inc.) with 0.9 mm CytoSelect Wound Healing Inserts at room temperature for 10 minutes. Using sterile forceps, orient the desired number of inserts in the plate wells with their “wound field” aligned in the same direction. Create a cell suspension containing 0.5-1.0×10^6 cells/ml in media containing 10% fetal bovine serum (FBS). Add 500 μL of cell suspension to each well by carefully inserting the pipette tip through the open end at the top of the insert. For optimal cell dispersion, add 250 μL of cell suspension to either side of the open ends at the top of the insert. Incubate cells in a cell culture incubator for 12-24 hours. Carefully remove the insert from the well to begin the wound healing assay. Use sterile forceps to grab and lift the insert slowly from the plate well. Slowly aspirate and discard the media from the wells. Wash wells with media to remove dead cells and debris. Finally, add media to wells to keep cells hydrated. Repeat wash if wells still have debris or unattached cells. When washing is complete, add media with FBS and/or compounds to continue cell culture and wound healing process. Agents that inhibit or stimulate cell migration can be added directly to the wells. Incubate cells in a cell culture incubator (2 hours) and then wash cells with PBS and then add fresh media without compounds. Incubate 12-24 hours before wash and fixing. Remove the fixation solution and add 400 μL of Cell Stain Solution to each well. Allow the stain to incubate with the cells for 15 minutes at room temperature. Aspirate and discard the solution. Carefully wash each stained well 3× with deionized water. Discard washes and allow cells to dry at room temperature. Cells that migrated into the wounded area or protruded from the border of the wound were visualized and photographed under an inverted microscope. Determine the surface area of the defined wound area: Total Surface Area=0.9 mm x length. Determine the surface area of the migrated cells into the wound area: Migrated Cell Surface Area=length of cell migration (mm)×2×length. Percent Closure (%)=Migrated Cell Surface Area/Total Surface Area x 100.

The next data set has as its system MDA-MB-231 cells. Briefly: Wound healing / gap closure migration assay, MDA-MB-231. The data set is classed as cell-based, human. Conditions: 2 h treatment; for wound closure, replications r1-r3: listed as HPbCD. Here is the method:
Published results have shown that β-CD inhibits human MDA-MB 231 cell migration. See Translational Medicine Communications, 1 (1), 3. This inhibition was attributed to the ability of β-CD to “deplete cholesterol”. β-CD, however, depletes also phospholipids.
as §1, §2

For data set [2] the following is noted: Table 3; cited from earlier work.
For data set [3] the following is noted: cited from earlier work.
For data set [4] the following is noted: in vivo; cited from earlier work.
The test system of data set [5] is BBB. The note with it: cited from earlier work.
Data set [6] concerns BBB. The note with it: cited from earlier work; for Transport across BBB: 2 h, 1 mM.
The subject of data set [7] is rats. The note with it: cited from earlier work.
For data set [8] the following is noted: cited from earlier work. The source holds these as a separate data set.
Data set [9] concerns unesterified cholesterol (UC) storage. Conditions: 3-week-old Npc1-/- mice, dorsal neocortex, filipin; cited from earlier work.
Another data set deals with cats. The note with it: doses of 4-8 g/kg; cited from earlier work.
For data set [10] the following is noted: mice, cats, and one human; cited from earlier work.
For data set [11] the following is noted: cited from earlier work. The source holds these as a separate data set.
Another data set concerns Aβ42. Conditions: SwN2a cells; persistent for 24 h after withdrawal; cited from earlier work.
Another data set deals with leukemia. Conditions: leukemia mouse models; cited from earlier work.
The test system of data set [12] is Tg19959 mice. Conditions: four months subcutaneous; cited from earlier work.
For data set [13], the system named is Tg19959 mice. The note with it: four months subcutaneous; cited from earlier work. The source holds these as a separate data set.
The test system of a further data set is HeLa/TFEB cells. Conditions: cited from earlier work.
In a further data set the test system is LINCL fibroblasts. The note with it: dose- and time-dependent; cited from earlier work.
For the next data set, the system named is a-syn aggregates. Conditions: neuroglioma cells, via autophagy; cited from earlier work.
For data set [14] the following is noted: rats, suppositories containing triglycerides (Witepsol H5); cited from earlier work.
Another data set deals with membrane cholesterol. Conditions: SwN2a cells; cited from earlier work.
Data set [15] relates to rats. Conditions: cited from earlier work. This is another data set of the same source.
The subject of another data set is human keratinocytes. The note with it: cited from earlier work.
In a further data set the test system is Caco-2 cells. The note with it: cited from earlier work.
For a further data set, the system named is Aβ1-40/42. Conditions: rats, stereotactical injection into the hippocampus; cited from earlier work.
Another data set relates to erythrocytes. The note with it: cited from earlier work.
For the next data set, the system named is transferrin endocytosis. Conditions: 10 mM; cited from earlier work.
The subject of data set [16] is rats. The note with it: […] daily; cited from earlier work.

Regarding `OC[C@H]1O[C@@H]2O[C@H]3[C@H](O)[C@@H](O)[C@@H](O[C@H]4[C@H](O)[C@@H](O)[C@@H](O[C@H]5[C@H](O)[C@@H](O)[C@@H](O[C@H]6[C@H](O)[C@@H](O)[C@@H](O[C@H]7[C@H](O)[C@@H](O)[C@@H](O[C@H]8[C@H](O)[C@@H](O)[C@@H](O[C@H]9[C@H](O)[C@@H](O)[C@@H](O[C@H]1[C@H](O)[C@H]2O)O[C@@H]9CO)O[C@@H]8CO)O[C@@H]7CO)O[C@@H]6CO)O[C@@H]5CO)O[C@@H]4CO)O[C@@H]3CO` [γ-CD, gamma-cyclodextrin], in the data set on NPC cells, the cholesterol accumulation entry is listed as “can reduce cholesterol accumulation”.

Regarding `C[C@@]12C[C@@]3(O)O[C@@H](O1)[C@]1(COC(=O)c4ccccc4)[C@H]3C[C@@]12O[C@@H]1O[C@H](CO)[C@@H](O)[C@H](O)[C@H]1O` [paeoniflorin], the disease phenotype entry in [1] is “mitigates the disease phenotype”.

Turning to `CCCCCCCCCCCC(=O)O` [C12, lauric acid], the tight junction morphology result in the data set on Caco-2 monolayers (Caco-2 monolayers) is on record as “did not induce detectable changes”. Moreover, in the data set on Caco-2 monolayers, the “equally effective concentration on paracellular permeability” value is 0.75 mM.

On to “2-hydroxypropyl-β-cyclodextrin [HP-β-CD]”, for which the “average wound closure (avg)” value with MCF-7 cells (MCF-7, 1 mM) was determined as 73.33%; in the data set with MCF-7 cells (MCF-7, 2 mM), 48.33%; in the data set on MCF-7 cells (MCF-7, 4 mM), 33.67%; with MDA-MB-231 cells (MDA-MB-231, 1 mM), 67.67%; in the data set with MDA-MB-231 cells (MDA-MB-231, 2 mM), 56.00%; with MDA-MB-231 cells (MDA-MB-231, 4 mM) it was 39.00%. The “wound closure, replications r1-r3” value with MCF-7 cells (MCF-7, 1 mM) was 68.00% and 74.00% and 78.00%; in the data set on MCF-7 cells (MCF-7, 2 mM), 41.00% and 48.00% and 56.00%; with MCF-7 cells (MCF-7, 4 mM) it was 32.00% and 28.00% and 41.00%; in the data set on MDA-MB-231 cells (MDA-MB-231, 1 mM) it was 62.00% and 68.00% and 73.00%; in the data set on MDA-MB-231 cells (MDA-MB-231, 2 mM), 48.00% and 59.00% and 61.00%; with MDA-MB-231 cells (MDA-MB-231, 4 mM), 48.00% and 44.00% and 25.00%. For the same molecule, in data set [2], the Solubility in water was greater than 600 mg/mL. The “oral absorption in rats” value in data set [3] is no more than 3%. Further, the “half-life (t1/2)” value in data set [4] is 1.7 to 1.9 h. In data set [4], the “vol. of distribution (VD)” value is 0.2 L/kg. Besides, the BBB breakdown in the data set on BBB [5] is on record as 2.5 mM. The “toxicity on BBB in vitro” value in the data set on BBB [5] is listed as “similar”. Moreover, the “Transport across BBB” value in the data set with BBB [6] was 9.3%. Besides, the “effect of 1 g/kg in rats” value in the data set with rats [7] was “did not cause adverse clinical signs”. Besides, in data set [8] (children with NPC, doses of up to 1000 mg/kg/d), the tolerability result was “well tolerated”. For the same molecule, the side effects entry in data set [8] (two children with NPC, about 2500 mg/kg bi-weekly (≈700 mg/kg/d), over a year) was “no discernable side effects”. Further, the “UC storage in brain cells” value in data set [9] is “highly effective reduction”. Further, the ototoxicity result is “permanent hearing loss” with cats and “risk of causing permanent hearing loss” in data set [10]. The “bone mineral density (BMD)” value in data set [11] (long-term parenteral administration, 200 mg/kg) was “decrease bone mineral density”. In addition, in the data set with Aβ42, the “levels of Aβ42” value was “dramatically lowered”. Besides, the survival entry with leukemia was “prolonged survival”. The “spatial learning and memory deficits” value in the data set with Tg19959 mice [12] is given as “significantly improved”. For the same molecule, in the data set with Tg19959 mice [13], the Aβ plaque deposition result was “diminished”. Also, the “tau immunoreactive dystrophic neurites (DN)” value with Tg19959 mice [13] is given as “reduced”. The “expression of LC3, SQSTM1/p62 and BECN1” value in the data set with HeLa/TFEB cells was “up-regulated”. In the data set on LINCL fibroblasts, the ceroid lipopigment result is on record as “clearance of ceroid lipopigment”. Moreover, in the data set on a-syn aggregates, the a-syn aggregates entry was “promoted clearance”. The “absorption, administered rectally” value in data set [14] is 26%. In the data set on membrane cholesterol, the “level of membrane cholesterol” value is “reduced”. Also, in the data set with rats [15], the “acute i.v. toxicity in rats” value is 10 g/kg. For the same molecule, in the data set with human keratinocytes (human keratinocytes), the apoptotic cell death result is “not apoptotic”.

`CCCCCCCCCC(=O)O` [C10, Capric acid]: the “equally effective concentration on paracellular permeability” value in the data set on Caco-2 monolayers is recorded as 13 mM.

maltosyl-α-CD: the cytotoxicity entry with Caco-2 cells is recorded as “less cytotoxic than α-CD”.

As to `CN1CCCC1c1cccnc1` (stereo not drawn) [nicotine], the “transported through the BBB” value in the data set with BBB [6] (in vitro, after 2 h of incubation) was 96%.

In the case of `OC[C@H]1O[C@@H]2O[C@H]3[C@H](O)[C@@H](O)[C@@H](O[C@H]4[C@H](O)[C@@H](O)[C@@H](O[C@H]5[C@H](O)[C@@H](O)[C@@H](O[C@H]6[C@H](O)[C@@H](O)[C@@H](O[C@H]7[C@H](O)[C@@H](O)[C@@H](O[C@H]8[C@H](O)[C@@H](O)[C@@H](O[C@H]1[C@H](O)[C@H]2O)O[C@@H]8CO)O[C@@H]7CO)O[C@@H]6CO)O[C@@H]5CO)O[C@@H]4CO)O[C@@H]3CO` [β-CD, beta-cyclodextrin], in the data set with BBB [5], the BBB breakdown was 2.5 mM and the “toxicity on BBB in vitro” value is “similar”. Moreover, in the data set with BBB [6], the “Transport across BBB” value is recorded as 26.7%. Further, in the data set with Aβ1-40/42, the “Toxicity of Aβ1-40/42” value is “reduced”. Also, the cholesterol released in the data set on erythrocytes (10 mM) is 95%. The extraction of cholesterol result in the data set on erythrocytes (erythrocytes) is given as “most effectively”. The “reduction of transferrin endocytosis” value with transferrin endocytosis was 80%. The cholesterol accumulation entry in the data set on NPC cells is on record as “can reduce cholesterol accumulation”. In addition, the “deaths, daily doses s.c.” value with rats [16] is “no deaths”. For the same molecule, the “acute i.v. toxicity in rats” value in the data set on rats [15] is listed as 1 g/kg. Besides, in the data set on human keratinocytes, the apoptotic cell death result was “induces caspase-dependent apoptotic cell death”.

Regarding alendronate-β-CD [ALN-β-CD], the effect on bone result in data set [11] (rat, in vivo) is listed as “bone-anabolic”.
